Test results: patent US12144864B2, “Tubulysins and protein-tubulysin conjugates” (Regeneron Pharmaceuticals, Inc., priority 2018, dated 2024)
Read-outs that look alike come from different tables or passages of the source.

Legend:
HCT-15 cells = experiment: Cytotoxicity in panel of MDR cell lines, HCT-15 (72 h and 144 h); assay type: cell-based, human; conditions: for IC50: Homo sapiens
In short: (§1)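 1000 cells/well, normal growth medium; 1:3 serial payload dilutions plus untreated control; 72 h and 144 h at 37 °C, 5% CO2; CellTiter-Glo 10 min RT; RLU → 4-parameter logistic IC50 (10 points).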

H69AR cells = experiment: Cytotoxicity in panel of MDR cell lines, H69AR (72 h and 144 h); assay type: cell-based, human; conditions: for IC50: Homo sapiens
In short: as §1

MES-SA/MX2 cells = experiment: Cytotoxicity in panel of MDR cell lines, MES-SA/MX2 (72 h and 144 h); assay type: cell-based, human; conditions: for IC50: Homo sapiens
Method: (§2) To test the ability of the disclosed tubulysin payloads to kill human cell lines, an in vitro cytotoxicity assay was performed. In vitro cytotoxicity of the disclosed payloads, as well as reference compounds, were evaluated using the CellTiter-Glo Assay Kit (Promega, Cat #G7573), in which the quantity of ATP present is used to determine the number of viable cells in culture. For the assay, C4-2, HEK293, or T47D cells were seeded at 4000 cells/well on Nunclon white 96-well plates in complete growth medium (DME high glucose:Ham's F12 at 4:1, 10% FBS, 100 units/ml Penicillin, 100 ug/ml streptomycin, 53 ug/ml glutatmine, 10 ug/ml insulin, 220 ng/ml biotin, 12.5 pg/ml T3, 12.5 ug/ml Adenine, 4 ug/ml transferrin for C42 cells; DME high glucose, 10% FBS, 100 units/ml Penicillin, 100 ug/ml streptomycin, 53 ug/ml glutatmine for HEK293; RPMI, 10% FBS, 100 units/ml Penicillin, 100 ug/ml streptomycin, 53 ug/ml glutatmine, 10 ug/ml insulin, 10 mM HEPEs, 200 nM Sodium Pyruvate for T47D cells) and grown overnight at 37° C. in 5% CO2. For cell viability curves, 1:3 serially diluted payloads were added to the cells at final concentrations ranging from 100 nM to […], including a no treatment control group, and were then incubated for 5 days. After the 5-day incubation, cells were incubated at room temperature with 100 μL of CellTiter-Glo reagents for 10 minutes. Relative luminescence units (RLU) were determined on a Victor plate reader (PerkinElmer). The IC50 values were determined from a four-parameter logistic equation over a 10-point response curve (GraphPad Prism). All IC50 values are expressed in molar (M) concentration. The percent cell killing (% kill) at the maximum concentration tested was estimated from the following formula (100−% viable cells). Averages±standard deviation (SD) are included where replicate experiments were performed.
(§3) To further test the ability of the disclosed tubulysin payloads, a cytotoxicity assay was performed using a panel of multidrug resistant (MDR) cell lines. In vitro cytotoxicity of the disclosed payloads as well as reference compounds were similarly evaluated as described above except using HCT-15 cells, a colorectal carcinoma cell line; H69AR, a doxorubicin resistant MDR derivative of the small cell lung cancer carcinoma cell line NCI-H69; MES-SA/MX2, a mitoxantrone resistant MDR derivative of the uterine sarcoma cell line MES-SA; and HL60/MX2, a mitoxantrone resistant MDR derivative of the acute promyelocytic leukemia cell line HL60. In these assays, cytotoxicity was evaluated in normal growth media (RPMI, 10% FBS, 100 units/ml Penicillin, 100 ug/ml streptomycin, and 53 ug/ml glutatmine for HCT-15 and HL60/MX2; RPMI, 20% FBS, 100 units/ml Penicillin, 100 ug/ml streptomycin, and 53 ug/ml glutatmine for H69-AR; Waymouths's:McCoy's (1:1), 10% FBS, 100 units/ml Penicillin, 100 ug/ml streptomycin, and 53 ug/ml glutatmine for MES-SA/MX2) with 1000 cells per well following 72 h and 144 h incubation with payloads.

HCT15 cells = experiment: cells; assay type: cell-based, human; conditions: HCT15 cells; for HCT-15 + verapamil % Kill / HCT-15 % Kill: maximum % cell killing
In short: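 Five-day exposure of 1000 HCT15 cells/well to threefold payload dilutions, run both plus and minus verapamil (5 ug/mL) in RPMI with 10% FBS. ATP luminescence (CellTiter-Glo) gives viability; four-parameter logistic fit of 10 points yields IC50, and 100 − % viable at highest dose gives % kill.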

C4-2 cells = experiment: Cell-based killing assay of payloads (CellTiter-Glo), C4-2 cells; set-up: species or system human; conditions: 5-day incubation; for IC50: Homo sapiens, C4-2, 120 h, average ± SD where replicates; for C4-2 % Kill: at maximum concentration tested (100 − % viable cells)
In short: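 Viability readout is CellTiter-Glo luminescence after a 5-day exposure to 10-point, threefold-diluted payloads spanning 100 nM–[…], following overnight attachment of 4000 cells/well. Four-parameter logistic fit gives IC50 in M; % kill taken at highest concentration tested.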

HL60/MX2 cells = experiment: Cytotoxicity in panel of MDR cell lines, HL60/MX2 (72 h and 144 h); assay type: cell-based, human; conditions: for IC50: Homo sapiens
Method: as §2, §3

[1] = 72 h incubation, read-out: HCT-15 IC50 72 h
[2] = 144 h incubation, read-out: HCT-15 IC50 144 h
[3] = 72 h incubation, read-out: H69AR IC50 72 h
[4] = 144 h incubation, read-out: H69AR IC50 144 h
[5] = 72 h incubation, read-out: MES-SA/MX2 IC50 72 h
[6] = 144 h incubation, read-out: MES-SA/MX2 IC50 144 h
[7] = with 5 ug/mL Verapamil, read-out: HCT-15 + verapamil IC50
[8] = Homo sapiens, HCT-15, without Verapamil, read-out: HCT-15 IC50
[9] = 72 h incubation, read-out: HL60/MX2 IC50 72 h
[10] = 144 h incubation, read-out: HL60/MX2 IC50 144 h

SMILES | HCT-15 % Kill 72 h (HCT-15 cells; 72 h incubation) [%] | HCT-15 % Kill 144 h (HCT-15 cells; 144 h incubation) [%] | IC50 (HCT-15 cells; [1]) [pM] | IC50 (HCT-15 cells; [2]) [pM] | H69AR % Kill 72 h (H69AR cells; 72 h incubation) [%] | H69AR % Kill 144 h (H69AR cells; 144 h incubation) [%] | IC50 (H69AR cells; [3]) [pM] | IC50 (H69AR cells; [4]) [pM] | MES-SA/MX2 % Kill 72 h (MES-SA/MX2 cells; 72 h incubation) [%] | MES-SA/MX2 % Kill 144 h (MES-SA/MX2 cells; 144 h incubation) [%] | IC50 (MES-SA/MX2 cells; [5]) [pM] | IC50 (MES-SA/MX2 cells; [6]) [pM] | HCT-15 + verapamil % Kill (HCT15 cells; with 5 ug/mL Verapamil) [%] | IC50 (HCT15 cells; [7]) [pM] | HCT-15 % Kill (HCT15 cells; without Verapamil) [%] | IC50 (HCT15 cells; [8]) [pM] | IC50 (C4-2 cells) [pM] | C4-2 % Kill (C4-2 cells) [%] | HL60/MX2 % Kill 72 h (HL60/MX2 cells; 72 h incubation) [%] | HL60/MX2 % Kill 144 h (HL60/MX2 cells; 144 h incubation) [%] | also measured
[2H]c1cc(C[C@@H](CC(C)(C)C(=O)O)NC(=O)c2csc([C@@H](C[C@H](C(C)C)N(CCCCCC)C(=O)[C@@H](NC(=O)[C@H]3CCCCN3C)[C@@H](C)CC)OC(C)=O)n2)cc([2H])c1N [IVs, (S)-4-(2-((1R,3R)-1-Acetoxy-3-((2S,3S)—N-hexyl-3-methyl-2-((R)-1-methylpiperidine-2-carboxamido)pentanamido)-4-methylpentyl)thiazole-4-carboxamido)-5-(4-aminophenyl-3,5-d2)-2,2-dimethylpentanoic acid] | 97.6 | 99.7 | 37.1 | 50.1 | 96.8 | 99.4 | 161 | 281 | 99.2 | 100 | 102 | 210 | 98.8 | 45.9 | 99.1 | 108 | 49.9 | 93.8 | 98.4 | 100 | IC50 (HL60/MX2 cells; [9]): < 15 pM; IC50 (HL60/MX2 cells; [10]): < 15 pM
CCCCCON(C(=O)[C@@H](NC(=O)[C@H]1CCCCN1C)[C@@H](C)CC)[C@H](C[C@@H](OC(=O)NC)c1nc(C(=O)N[C@@H](Cc2ccc(N)cc2)CC(C)(C)C(=O)O)cs1)C(C)C [VIh, (S)-5-(4-Aminophenyl)-4-(2-((5R,7R)-7-isopropyl-8-((2S,3S)-3-methyl-2-((R)-1-methylpiperidine-2-carboxamido)pentanoyl)-3-oxo-4,9-dioxa-2,8-diazatetradecan-5-yl)thiazole-4-carboxamido)-2,2-dimethylpentanoic acid] | 97.9 | 99.7 | 366 | 515 | 96.3 | 99.1 | 1070 | 1730 | 98.5 | 99.8 | 1260 | 2720 | 97.8 | 71.6 | 99 | 263 | 159 | 93.9 | 97.6 | 99.9 | IC50 (HL60/MX2 cells; [9]): 39.1 pM; IC50 (HL60/MX2 cells; [10]): < 15 pM
CC[C@H](C)[C@H](NC(=O)[C@H]1CCCCN1C)C(=O)N(CCCCc1cn(-c2ccccc2)nn1)[C@H](C[C@@H](OC(C)=O)c1nc(C(=O)N[C@@H](Cc2ccc(N)cc2)CC(C)(C)C(=O)O)cs1)C(C)C [IVp, (S)-4-(2-((1R,3R)-1-acetoxy-4-methyl-3-((2S,3S)-3-methyl-2-((R)-1-methylpiperidine-2-carboxamido)-N-(4-(1-phenyl-1H-1,2,3-triazol-4-yl)butyl)pentanamido)pentyl)thiazole-4-carboxamido)-5-(4-aminophenyl)-2,2-dimethylpentanoic acid] | 97.6 | 99.7 | 181 | 231 | 96.3 | 99.2 | 644 | 1120 | 98.8 | 99.9 | 792 | 1660 | 97.6 | 86.4 | 98.7 | 239 | 177 | 94.2 | 97.5 | 99.9 | IC50 (HL60/MX2 cells; [9]): 23.7 pM; IC50 (HL60/MX2 cells; [10]): < 15 pM
CC[C@H](C)[C@H](NC(=O)[C@H]1CCCCN1C)C(=O)N(CCCCc1cn(Cc2ccccc2)nn1)[C@H](C[C@@H](OC(C)=O)c1nc(C(=O)N[C@@H](Cc2ccc(N)cc2)CC(C)(C)C(=O)O)cs1)C(C)C [IVo, (S)-4-(2-((1R,3R)-1-Acetoxy-3-((2S,3S)—N-(4-(1-benzyl-1H-1,2,3-triazol-4-yl)butyl)-3-methyl-2-((R)-1-methylpiperidine-2-carboxamido)pentanamido)-4-methylpentyl)thiazole-4-carboxamido)-5-(4-aminophenyl)-2,2-dimethylpentanoic acid] | 97.3 | 99.7 | 247 | 348 | 96.2 | 99.1 | 779 | 1270 | 98.9 | 99.9 | 1120 | 2960 | 97.6 | 109 | 98.6 | 370 | 262 | 93.4 | 98.1 | 100 | IC50 (HL60/MX2 cells; [9]): 37.6 pM; IC50 (HL60/MX2 cells; [10]): < 15 pM
